This note sets out measurements from article PMC12848304, “Small-molecule inhibitor of C‑terminal HSP90 dimerization modulates autophagy and functions synergistically with mTOR inhibition to kill cisplatin-resistant cancer cells” (Cell Death & Disease, 2025).

The target of one test is T1, HSP90β (Homo sapiens, UniProt P08238).
T1 construct: gene HSP90AB1; C-terminal domain (CTD); with PPID
The experiment in a line: TR-FRET HSP90 CTD/PPID interaction assay ([…]). It is filed as biochemical. (TR-FRET usually uses a lanthanide donor and a delayed reading to cut background.)

In a further test the target is T2, HSP90α CTD (Homo sapiens, UniProt P07900).
T2 construct: gene HSP90AA1; recombinant C-terminal domain (CTD)
T2 sequence (P07900 626-732 limits assumed): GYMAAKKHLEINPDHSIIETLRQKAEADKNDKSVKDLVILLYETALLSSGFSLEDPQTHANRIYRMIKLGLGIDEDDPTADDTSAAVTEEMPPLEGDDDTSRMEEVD
The experiment in a line: thermal shift assay (SYPRO orange, […]) with recombinant HSP90α CTD; supported by BS3 cross-linking (loss of CTD dimers) and CETSA. Type of test: binding. The settings on record: read-out: thermal shift assay (SYPRO orange, 100 μM) with recombinant HSP90α CTD; supporte.

Each structure is given as a SMILES string.

T1 sequence (P08238 553-724 limits assumed): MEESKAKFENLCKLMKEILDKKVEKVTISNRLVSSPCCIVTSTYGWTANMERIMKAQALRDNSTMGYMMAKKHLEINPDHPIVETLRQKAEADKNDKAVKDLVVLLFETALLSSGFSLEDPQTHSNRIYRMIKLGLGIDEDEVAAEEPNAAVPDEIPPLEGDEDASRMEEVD
T1 sequence (Q08752 2-370 partner): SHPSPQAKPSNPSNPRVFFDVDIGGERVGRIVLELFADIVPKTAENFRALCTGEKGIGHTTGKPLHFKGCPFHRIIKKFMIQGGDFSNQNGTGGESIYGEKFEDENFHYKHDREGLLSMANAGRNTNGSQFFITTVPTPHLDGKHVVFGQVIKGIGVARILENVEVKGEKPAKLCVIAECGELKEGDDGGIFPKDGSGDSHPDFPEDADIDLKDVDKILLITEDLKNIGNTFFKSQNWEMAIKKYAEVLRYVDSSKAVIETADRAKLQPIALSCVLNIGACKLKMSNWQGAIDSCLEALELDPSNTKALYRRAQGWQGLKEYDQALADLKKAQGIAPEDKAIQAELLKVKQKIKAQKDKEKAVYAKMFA

Regarding `CCC(C)n1c(C(=O)Nc2cnc(C(=O)NC)n(CC(C)C)c2=O)ncc(NC(=O)c2ncc(N)c(=O)n2Cc2ccc(OC)cc2)c1=O` (centres unmarked) [compound 2, VWK147], the “TR-FRET HSP90 CTD/PPID interaction assay (1 mM)” value at HSP90β was “VWK147 disrupts the binding of Peptidyl prolyl isomerase D (PPID, CTD-specific co-chaperone) to the CTD of recombinant HSP90β”. At HSP90α CTD, the ΔTm at 100 µM is -8.43 ± 2.75 °C.
